This note sets out measurements from US20220127297A1, “Novel Antibacterial 3"-Derivatives Of 4,6-Disubstituted 2,5-Dideoxystreptamine Aminoglycoside Antibiotics” (AGILeBiotics B.V., priority 2018, published 2022).

The subject of one assay is A. baumannii DSM 105126. As to the kind of experiment: MIC 50, broth micro-dilution, DSM strains. It is filed as cell-based, Acinetobacter baumannii. The text has this:
(§1) 3.2 Against Selected Bacteria of the ESKAPE Panel and Enterococcus faecalis (DSM Strains)
(§2) Tested reference compounds. Amikacin sulfate (Cat. No. 01693, Chem-Impex), Gentamicin sulfate (Cat. No. G4918, Sigma Aldrich).
(§3) Microbial strains. Enterococcus faecalis DSM 2570, Klebsiella pneumoniae DSM 26371, Acinetobacter baumannii DSM 105126, Enterobacter cloacae 3MRGN (clinical bronchial aspirate isolate).
(§4) Culture media and equipment. BBL™ Mueller Hinton Broth 2 (Lot. BCBW1143, Cat. No. 70192, Sigma); Trypcase Soy Blood-agar plates (Cat. No. 43001, Biomérieux); Cryoinstant (contains 15% glycerol; Cat. No. 822070ZA, VWR International); GasPak™ EZ Standard Incubation Container (Cat. No. 260671, Becton Dickinson); GasPak™ EZ Campy Container System Sachets (Cat. No. 260680, Becton Dickinson); 96-well deep well plate, 1 mL (Cat. No. 0030506.200, Eppendorf); Plate lid (Cat. No. 0030131.525, Eppendorf); 96-well plate, F-bottom (Cat. No. 260860, Nunc); Incubator (Sartorius Certomat BS-1); Laminar flow (Heraeus HS12); UV/VIS meter (Perkin Elmer Lambda Bio+); Platereader (Tecan Infinite M200 Pro).
(§5) Compound preparation. Compounds were prepared in MH2 media at a concentration of 5 mM and stored at 4° C. For testing, solutions of 128 μM were prepared in MH2, for tests against E. faecalis a solution of 512 μM was prepared. Out of these working solutions, 400 μL was transferred to wells in the first column of 96-well deep well plates. Each compound was transferred in triplicate. Plates were previously filled with 200 μL of MH2 media in all wells except for the wells in the first column. After compound and antibiotic addition, the compounds were serial two-fold diluted by transferring 200 μL from the first to the second column, then from the second to the third column and so on. Finally, 200 μL was removed from the last column.
(§6) Inoculum preparation. Microorganisms used were all revived from 15% glycerol storage in Croinstant tubes at −28° C. by plating them on blood agar plates. A. baumanni, and E. cloacae were grown aerobically at 37° C., E. faecalis was grown microaerophilically at 37° C., and K. pneumoniae was grown aerobically at 37° C. Plates were stored at 4° C. for up to two weeks, after which new plates were prepared from −28° C. A single colony was inoculated in MH2 media and grown at 37° C. and 200 rpm to an optical density (measured by UV/Vis spectroscopy) of 0.6-0.8 at 600 nm. Out of these suspensions, actual inoculums were prepared by diluting them to an optical density of 0.1 in MH2 media. From these inoculums, 200 μL was transferred to each well, resulting in a final compound concentration range of 64 μM-31.3 nM for, K. pneumoniae, A. baumanni, and E. cloacae, and 256 μM-125 nM for E. faecalis. Plates inoculated with E. faecalis were placed inside a GasPak™ Container System with GasPak™ Campy Container System sachets. All plates were incubated at 200 rpm for 18 h under the microorganism culturing conditions mentioned above.
(§7) MIC determination. After 18 h of growth, 200 μL was transferred to a 96-well F-bottom plate. The optical density was determined by a plate reader at 600 nm, with 10 s shaking before reading. Triplicate measurements were averaged, and a growth curve was plotted in Excel. The first column in which the growth reached half the value of maximum growth was determined as the MIC50 value for that particular compound.
(§8) MIC50. The MIC50 of a compound was assigned at which the bacterial growth reached half the value of maximum growth.
A general note: Broth dilution looks for growth in wells or tubes with falling amounts of substance.

The subject of the next assay is K. pneumoniae DSM 26371. The assay is described as follows: MIC 50, broth micro-dilution, DSM strains. In kind it is cell-based, Klebsiella pneumoniae.
From the text: as §1, §2, §3, §4, §5, §6, §7, §8

Where [1] appears, read: Acinetobacter baumannii, DSM105126, read-out: MIC 50.
Setting [2] is: Klebsiella pneumoniae, DSM26371, K. pneumoniae DSM 26371, read-out: MIC 50.

Molecules are shown by their SMILES. ≈ marks a conversion by molar mass, not a printed value. Where two headings read alike, the source gives them in different places.

In the case of `CC(C)(C)CCNC(=N)NC1[C@@H](O)C(OC2[C@@H](F)[C@H](O[C@H]3OC(CN)[C@@H](O)CC3N)C(N)C[C@H]2NC(=O)[C@@H](O)CCN)O[C@H](CO)[C@H]1O` (stereo partly drawn) [ABX5025, Tobra-AHB-F-Gua 2-tBu-ethyl], the MIC50 in the assay with A. baumannii DSM 105126 (setting [1]) came out at 0.25 µM (≈ 0.174 µg/mL); in the assay on K. pneumoniae DSM 26371 (setting [2]) it was 0.5 µM (≈ 0.348 µg/mL).
Regarding `N=C(NC[C@@H]1CNCCO1)NC1[C@@H](O)C(OC2[C@@H](F)[C@H](O[C@H]3OC(CN)[C@@H](O)CC3N)C(N)C[C@H]2NC(=O)[C@@H](O)CCN)O[C@H](CO)[C@H]1O` (stereo partly drawn) [ABX5040, Tobra-AHB-F-Gua (S) morpholin-2-yl methyl], the MIC50 is 0.0625 to 0.125 µM (≈ 0.0445 to 0.089 µg/mL) in the assay on A. baumannii DSM 105126 (setting [1]) and 0.5 µM (≈ 0.356 µg/mL) in the assay with K. pneumoniae DSM 26371 (setting [2]).
The corresponding values for `C[C@@H](N)CCNC(=N)NC1[C@@H](O)C(OC2[C@@H](F)[C@H](O[C@H]3OC(CN)[C@@H](O)CC3N)C(N)C[C@H]2NC(=O)[C@@H](O)CCN)O[C@H](CO)[C@H]1O` (stereo partly drawn) [ABX5047, Tobra-AHB-F-Gua (R) 3-amino-butyl] are 0.125 µM (≈ 0.0855 µg/mL) and 0.25 µM (≈ 0.171 µg/mL).
Take `N=C(NCCCO)NC1[C@@H](O)C(OC2[C@@H](F)[C@H](O[C@H]3OC(CN)[C@@H](O)CC3N)C(N)C[C@H]2NC(=O)[C@@H](O)CCN)O[C@H](CO)[C@H]1O` (stereo partly drawn) [ABX5041, Tobra-AHB-F-Gua 3-hydroxy-propyl]: the MIC50 in the assay with A. baumannii DSM 105126 (setting [1]) was found to be 0.25 µM (≈ 0.168 µg/mL); with K. pneumoniae DSM 26371 (setting [2]), 0.5 µM (≈ 0.335 µg/mL).
The like results for `N=C(NCC1CCCO1)NC1[C@@H](O)C(OC2[C@@H](F)[C@H](O[C@H]3OC(CN)[C@@H](O)CC3N)C(N)C[C@H]2NC(=O)[C@@H](O)CCN)O[C@H](CO)[C@H]1O` (stereo partly drawn) [ABX5046, Tobra-AHB-F-Gua tetrahydrofuran-2-yl methyl] were, in that order, 0.25 µM (≈ 0.174 µg/mL) and 0.5 µM (≈ 0.348 µg/mL).
In the case of `NCC[C@H](O)C(=O)N[C@@H]1C[C@H](N)[C@@H](O[C@H]2O[C@H](CN)[C@@H](O)[C@@H](O)[C@H]2O)[C@H](O)[C@H]1O[C@H]1O[C@H](CO)[C@@H](O)[C@H](N)[C@H]1O` [ABX3002, 3′Epi-KanaA-AHB], the “MIC50” value against A. baumannii DSM 105126 is 2 µM (≈ 1.17 µg/mL); with K. pneumoniae DSM 26371 (K. pneumoniae DSM 26371), 8 µM (≈ 4.68 µg/mL).
Turning to `N=C(NCCN)NC1C(O)[C@@H](CO)OC(OC2C(F)[C@H](O[C@H]3OC(CN)[C@@H](O)CC3N)C(N)C[C@H]2NC(=O)[C@@H](O)CCN)[C@@H]1O` (stereo partly drawn) [ABX5020, Tobra-AHB-F-Gua-2-amino-ethyl], the values for the MIC50 in the assay on A. baumannii DSM 105126 (setting [1]) and with K. pneumoniae DSM 26371 (setting [2]) were 0.0625 to 0.125 µM (≈ 0.041 to 0.082 µg/mL) and 0.5 µM (≈ 0.328 µg/mL), respectively.
`N=C(N)N[C@@H]1[C@@H](O)[C@@H](O[C@@H]2[C@@H](O)[C@H](O[C@H]3O[C@H](CN)[C@@H](O)[C@@H](O)[C@H]3N)[C@@H](N)C[C@H]2NC(=O)[C@@H](O)CCN)O[C@H](CO)[C@H]1O` [ABX4005, 3′Epi-KanaB-AHB-Gua]: the “MIC50” value in the assay with A. baumannii DSM 105126 is 0.5 µM (≈ 0.313 µg/mL); against K. pneumoniae DSM 26371 (K. pneumoniae DSM 26371), 1 to 2 µM.
In the case of `NCC[C@H](O)C(=O)N[C@@H]1CC(N)[C@@H](O[C@H]2OC(CN)[C@@H](O)CC2N)[C@H](O)C1OC1O[C@H](CO)[C@@H](O)C(N)[C@H]1O` (stereo partly drawn) [ABX5004, Tobra-AHB], the “MIC50” value against A. baumannii DSM 105126 stood at 0.5 µM (≈ 0.284 µg/mL); in the assay with K. pneumoniae DSM 26371 (K. pneumoniae DSM 26371) it was 1 µM (≈ 0.569 µg/mL).
The like results for `NCC[C@H](O)C(=O)N[C@@H]1CC(N)[C@@H](O[C@H]2OC(CN)[C@@H](O)CC2N)[C@H](F)C1OC1O[C@H](CO)[C@@H](O)C(N)[C@H]1O` (stereo partly drawn) [ABX5024, Tobra-AHB-F] were, in that order, 0.125 µM (≈ 0.0713 µg/mL) and 1 µM (≈ 0.571 µg/mL).
Regarding `N=C(NC[C@H]1CNCCO1)NC1[C@@H](O)C(OC2[C@@H](F)[C@H](O[C@H]3OC(CN)[C@@H](O)CC3N)C(N)C[C@H]2NC(=O)[C@@H](O)CCN)O[C@H](CO)[C@H]1O` (stereo partly drawn) [ABX5043, Tobra-AHB-F-Gua (R) morpholin-2-yl methyl], the MIC50 with A. baumannii DSM 105126 (setting [1]) was 0.0625 to 0.125 µM (≈ 0.0445 to 0.089 µg/mL); in the assay on K. pneumoniae DSM 26371 (setting [2]), 0.5 µM (≈ 0.356 µg/mL).
For `NCCC(O)C(=O)NC1CC(N)C(OC2OC(CN)C(O)C(O)C2N)C(F)C1OC1OC(CO)C(O)C(N)C1O` (stereo not drawn) [ABX4007, KanaB-AHB-F], the “MIC50” value against A. baumannii DSM 105126 and with K. pneumoniae DSM 26371 (K. pneumoniae DSM 26371) was 0.5 µM (≈ 0.293 µg/mL) each time.
